Patent US5155115A, “Thienopyridine derivatives” (Kyowa Hakko Kogyo Co., Ltd., priority 1991, dated 1992)

What was measured:
dd-Y-strain male mice = experiment: Acute Toxicity (minimum lethal dose); format: in vivo; conditions: mortality for 7 days
Experimental: A test compound was intraperitoneally and orally administered to dd-Y-strain male mice weighing 20 to 25 g. The minimum lethal dose (MLD) was determined by observing the mortality for 7 days after the administration.

5-HT3 receptor = 5-HT3 receptor binding test ([^3 H] quipazine, NG108-15 cell membrane fraction); design: species or system rat; conditions: 2 nM [^3 H] quipazine, 37° C., 60 minutes, pH 7.5; for Inhibition Rate (%) (concentration) 10^-7 M: 10^-7 M test compound; for Inhibition Rate (%) (concentration) 10^-8 M: 10^-8 M test compound
Experimental: 5-HT3 receptor binding test
Using rat neutroblastoma-glicoma NG108-15 cell membrane fraction, the binding activities of the test compounds to 5-HT3 receptor were examined.
A membrane fraction of NG108-15 cells was prepared according to the method of Neijt et al. [Naunyn-Schmiedeberg's Arch. Pharmacol., 337, 493 (1988)].
The receptor binding test was performed using [^3 H] quipazine [J. Neurochem., 52, 1787 (1989)], a high affinity ligand to 5-HT3 receptor.
A membrane fraction obtained from 4×10^5 NG108-15 cells was suspended in 1 ml of 20 mM Tris-hydrochloride buffer (pH 7.5) (hereinafterreferred to as Buffer) containing 154 mM sodium chloride. Then, 2 nM [^3 H] quipazine (2519.7 GBq/mmol; NEN CO.) and various concentrations of the test compound were added to the suspension followed by incubating at 37° C. for 60 minutes. 4 ml of ice-cold Buffer was added to terminate the reaction and then the mixture was filtered through GF/C glass fiber filter (Whatmann Co., Ltd.). The filter was washed 5 times with 2 ml of ice-cold Buffer, and put in a scintillation vial containing 8 ml of Scintisol EX-H (Wako Pure Chemicals, Inc.). Radioactivity on the filter was counted in a liquid scintillation counter (TRI-CARB 2200CA; Packard Co., Ltd.).
An inhibition of the [^3 H] quipazine binding by the test compound was estimated according to the equation; [formula]
"Total binding" is [^3 H] quipazine-binding in the absence of test compound and "non-specific binding" is [^3 H] quipazine-binding in the presence of 10 μM MDL7222 5-HT3 antagonist [Naunyn-Schmiedeberg's Arch. Pharmacol., 326, 36 (1984)].

[1] = test system: Cisplatin-induced Vomiting; experiment: Activity Against Cisplatin-induced Vomiting; format: in vivo, Suncus murinus; conditions: 1.0 mg/kg i.p., 30 minutes before cisplatin 40 mg/kg i.p., n = 10
Experimental: Activity Against Cisplatin-induced Vomiting
In one group, 5 to 10 female and male Suncus murinus animals weighing 23 to 68 g were used. According to the method of Matsuki et al. [Japan J. Pharmacol., 48, 303 (1988)], each animal was put into a separate metal net cage (width 15 cm ×length 21 cm ×height 15 cm). One hour after, a test compound or physiological saline (control) was intraperitoneally (i.p.) administered in a dose of 10 μl/g of body weight. Further 30 minutes after administration of the test compound or physiological saline (control), 40 mg/kg of cisplatin was intraperitoneally administered. Taking no account of vomiting caused for 5 minytes after administration of cisplatin, a time period (latency) for the first vomiting and the number of frequencies (episodes) of vomiting caused for the period of 5 to 120 minutes after administration were determined. The latency and the number of frequencies in the test compound administered group were compared with those in the control group. The test of significance was performed by Student's t-test.

| Structure (SMILES) | MLD (mg/kg) i.p. (dd-Y-strain male mice) | MLD (mg/kg) p.o. (dd-Y-strain male mice) | Inhibition Rate (%) (concentration) 10^-7 M (5-HT3 receptor) | Inhibition Rate (%) (concentration) 10^-8 M (5-HT3 receptor) | Number of Vomiting episodes (mean ± S.E.M.) ([1]; 5 to 120 minutes after cisplatin, control 29.2 ± 4.5 (n = 5)) | Latency (min.) (mean ± S.E.M.) ([1]; time to first vomiting, control 28.6 ± 6.3 (n = 5)) |
| --- | --- | --- | --- | --- | --- | --- |
| CN1[C@@H]2CC[C@H]1C[C@@H](NC(=O)c1c(O)c3sccc3[nH]c1=O)C2 [Compound 1, Endo-N-(8-methyl-8-azabicyclo[3.2.1]oct-3-yl)-4,5-dihydro-7-hydroxy-5-oxothieno[3,2-b]pyridine-6-carboxamide] | > 100 mg/kg | > 300 mg/kg | 94% | 44% | 9.3 ± 2.2 | 66.0 ± 10.4 min |
| CCCCn1c(=O)c(C(=O)N[C@H]2C[C@H]3CC[C@@H](C2)N3C)c(O)c2sccc21 [Compound 3, Endo-N-(8-methyl-8-azabicyclo[3.2.1]oct-3-yl)-4-(n-butyl)-4,5-dihydro-7-hydroxy-5-oxothieno[3,2-b]pyridine-6-carboxamide] | – | > 200 mg/kg | 101% | 98% | – | – |
| CCCCn1c(=O)c(C(=O)O[C@H]2C[C@H]3CC[C@@H](C2)N3C)c(O)c2sccc21 [Compound 4, Endo-8-methyl-8-azabicyclo[3.2.1]oct-3-yl 4-(n-butyl)-4,5-dihydro-7-hydroxy-5-oxothieno[3,2-b]pyridine-6-carboxylate] | > 50 mg/kg | > 100 mg/kg | – | – | – | – |
| CCCCn1c(=O)c(C(=O)N[C@H]2C[C@H]3CC[C@@H](C2)N3C)c(O)c2ccsc21 [Compound 5, Endo-N-(8-methyl-8-azabicyclo[3.2.1]oct-3-yl)-7-(n-butyl)-6,7-dihydro-4-hydroxy-6-oxothieno[2,3-b]pyridine-5-carboxamide] | > 100 mg/kg | > 300 mg/kg | 105% | 100% | – | – |
| CCCCn1c(=O)c(C(=O)O[C@H]2C[C@H]3CC[C@@H](C2)N3C)c(O)c2ccsc21 [Compound 6, Endo-8-methyl-8-azabicyclo[3.2.1]oct-3-yl 7-(n-butyl)-6,7-dihydro-4-hydroxy-6-oxothieno[2,3-b]pyridine-5-carboxylate] | > 100 mg/kg | > 100 mg/kg | – | – | – | – |
| CN1[C@@H]2CC[C@H]1C[C@@H](NC(=O)c1c(O)c3ccsc3[nH]c1=O)C2 [Compound 7, Endo-N-(8-methyl-8-azabicyclo[3.2.1]oct-3-yl)-6,7-dihydro-4-hydroxy-6-oxothieno[2,3-b]pyridine-5-carboxamide] | – | – | 71% | 23% | – | – |
| CN1[C@@H]2CC[C@H]1C[C@@H](OC(=O)c1c(O)c3ccsc3[nH]c1=O)C2 [Compound 8, Endo-8-methyl-8-azabicyclo[3.2.1]oct-3-yl 6,7-dihydro-4-hydroxy-6-oxothieno[2,3-b]pyridine-5-carboxylate] | > 100 mg/kg | > 300 mg/kg | – | – | – | – |
| CN1[C@@H]2CCC[C@H]1C[C@@H](NC(=O)c1c(O)c3ccsc3[nH]c1=O)C2 [Compound 9, Endo-N-(9-methyl-9-azabicyclo[3.3.1]non-3-yl)-6,7-dihydro-4-hydroxy-6-oxothieno[2,3-b]pyridine-5-carboxamide] | > 50 mg/kg | > 300 mg/kg | 69% | 12% | – | – |
